# Reference: PMC3881423 (Journal of medicinal chemistry, 2013)
# Columns and labels:
# [1] = biological target: purified LSD1 recombinant (Homo sapiens, UniProt O60341)
# LSD1 [2] = biological target: T1, LSD1 (Homo sapiens, UniProt O60341); assay: Microscale thermophoresis; format: binding
# MAO-A = MAO-A (Homo sapiens, UniProt P21397)
# MAO-B = MAO-B (Homo sapiens, UniProt P27338)
# MGC-803 cells [3] = settings: MGC-803, 0.25 μM
# MGC-803 cells [4] = settings: MGC-803, 0.02 μM, 48 h
# LSD1 [5] = biological target: T1, LSD1; settings: monitored at 468nm; data not shown
# [6] = biological target: LSD1-snai1 complex in MGC-803 cells (Homo sapiens, UniProt O60341); settings: MGC-803, 48h; 2-PCPA 100, 250μM
# LSD1 [7] = biological target: T1, LSD1
# LSD1 [8] = biological target: T1, LSD1; settings: dialyzed against hepes buffer 4°C 24 h
# MAO-A, sequence (P21397 whole entry, species assumed): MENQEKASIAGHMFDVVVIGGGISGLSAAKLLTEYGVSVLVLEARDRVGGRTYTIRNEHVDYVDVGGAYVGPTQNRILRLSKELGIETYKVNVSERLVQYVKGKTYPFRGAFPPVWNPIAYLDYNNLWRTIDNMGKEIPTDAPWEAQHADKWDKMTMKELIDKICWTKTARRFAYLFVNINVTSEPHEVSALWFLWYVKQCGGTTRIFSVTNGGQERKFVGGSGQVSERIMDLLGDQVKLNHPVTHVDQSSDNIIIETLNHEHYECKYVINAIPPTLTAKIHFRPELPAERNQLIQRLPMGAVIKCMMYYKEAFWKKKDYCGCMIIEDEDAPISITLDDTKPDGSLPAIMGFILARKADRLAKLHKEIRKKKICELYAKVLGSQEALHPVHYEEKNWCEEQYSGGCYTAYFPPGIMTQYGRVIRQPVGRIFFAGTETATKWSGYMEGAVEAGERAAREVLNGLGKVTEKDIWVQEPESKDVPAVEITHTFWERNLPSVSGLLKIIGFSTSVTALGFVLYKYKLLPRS
# MAO-B, sequence (P27338 whole entry, species assumed): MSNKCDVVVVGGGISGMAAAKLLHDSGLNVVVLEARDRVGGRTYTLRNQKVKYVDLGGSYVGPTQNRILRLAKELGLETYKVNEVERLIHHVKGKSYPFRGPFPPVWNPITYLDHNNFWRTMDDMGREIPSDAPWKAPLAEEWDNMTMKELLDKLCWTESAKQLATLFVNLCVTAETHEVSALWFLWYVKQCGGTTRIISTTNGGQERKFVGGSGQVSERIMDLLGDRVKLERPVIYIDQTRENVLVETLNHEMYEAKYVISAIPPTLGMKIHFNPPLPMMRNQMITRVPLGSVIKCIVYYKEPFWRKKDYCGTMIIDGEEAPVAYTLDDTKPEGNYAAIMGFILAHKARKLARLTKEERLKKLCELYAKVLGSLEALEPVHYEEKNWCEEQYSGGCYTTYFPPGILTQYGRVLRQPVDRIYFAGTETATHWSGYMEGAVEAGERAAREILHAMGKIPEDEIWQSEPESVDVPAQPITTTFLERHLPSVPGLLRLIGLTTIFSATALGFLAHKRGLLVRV
smiles,measurement,setting,value
CC(C)(C)OC(=O)N1CCN(C(=S)SCc2cn(Cc3nc4ccccc4[nH]3)nn2)CC1 [Compound 50],LSD1 inhibitory activity (in words),[1],complete loss of activity or very weak binding affinity
CC(C)(C)OC(=O)N1CCN(C(=S)SCc2cn(CC3=CC(=O)OC3)nn2)CC1 [Compound 51],LSD1 inhibitory activity (in words),[1],complete loss of activity or very weak binding affinity
CC(C)(C)OC(=O)N1CCN(C(=S)SCc2cn(Cc3ccc4ccccc4c3)nn2)CC1 [Compound 48],LSD1 inhibitory activity (in words),[1],complete loss of activity or very weak binding affinity
"Cc1cc2nc3c(=O)[nH]c(=O)nc-3n(C[C@H](O)[C@H](O)[C@H](O)COP(=O)(O)OP(=O)(O)OC[C@H]3O[C@@H](n4cnc5c(N)ncnc54)[C@H](O)[C@@H]3O)c2cc1C [FAD, flavin adenine dinucleotide]",Kd,LSD1 [2],182 nM
CC(C)(C)OC(=O)N1CCN(C(=S)SCc2cn(Cc3cc(=O)[nH]c4ccccc34)nn2)CC1 [Compound 49],LSD1 inhibitory activity (in words),[1],complete loss of activity or very weak binding affinity
"CC(C)(C)OC(=O)N1CCN(C(=S)SCc2cn(Cc3ccccc3F)nn2)CC1 [Compound 22, tert Butyl 4-(((1-(2-fluorobenzyl)-1H-1,2,3-triazol-4-yl)methylthio)carbonothioyl)-piperazine-1-carboxylate]",effect on MAO-A activity (in words),MAO-A,no significant effects
same,effect on MAO-B activity (in words),MAO-B,no significant effects
Cc1ccccc1Cn1cc(CSC(=S)N2CCN(C(=O)OC(C)(C)C)CC2)nn1 [Compound 29],LSD1 inhibitory activity (in words),[1],without any detectable activity
"Cc1ccc(Cn2cc(CSC(=S)N3CCN(C(=O)OC(C)(C)C)CC3)nn2)cc1 [Compound 26, tert Butyl 4-(((1-(4-methylbenzyl)-1H-1,2,3-triazol-4-yl)methylthio)carbonothioyl)-piperazine-1-carboxylate]",cell proliferation,MGC-803 cells [3],cannot inhibit the cell proliferation
same,effect on MAO-A activity (in words),MAO-A,no significant effects
same,cell migration,MGC-803 cells [4],significantly inhibited
same,amount of FAD in the dialysis tube after dialysis,LSD1 [5],much less than that in control group
same,binding of LSD1 to snai1,[6],significantly decreased
same,effect on MAO-B activity (in words),MAO-B,no significant effects
same,mode of inhibition over LSD1 substrate H3K4me2,"LSD1 [7]; FAD 2.5 μM, peptide 10 to 80 μM",non-competitive inhibitor
same,mode of inhibition over LSD1 cofactor FAD,"LSD1 [7]; peptide 25 μM, FAD 0.6 to 9.0 μM",competitive inhibitor
same,LSD1 activity after dialysis,LSD1 [8],the activity can be restored
CC(C)(C)OC(=O)N1CCN(C(=S)SCc2cn(CCOc3cc(=O)oc4ccccc34)nn2)CC1 [Compound 47],LSD1 inhibitory activity (in words),[1],complete loss of activity or very weak binding affinity
